Reference: the NIST ThermoML archive (doi:10.1016/j.jct.2009.03.014)
Several values for one entry are separate records, joined by “and”; a condition that tells them apart may be missing. Equal values may be shown once.

What was measured:
[1] = Crystal, Calculated from knudsen effusion weight loss
[2] = molar enthalpy of vaporization or sublimation; conditions: 298.15 K, Crystal

O=[N+]([O-])c1c(Cl)cc(Cl)cc1Cl [1,3,5-trichloro-2-nitrobenzene]
Conditions	molar enthalpy, Drop-Microcalorimetry [kcal/mol]	vapor or sublimation pressure, 287.13 K	vapor or sublimation pressure, 289.15 K	vapor or sublimation pressure, 291.14 K	vapor or sublimation pressure, 293.13 K	vapor or sublimation pressure, 295.15 K	vapor or sublimation pressure, 297.15 K	vapor or sublimation pressure, 299.14 K	vapor or sublimation pressure, 301.13 K	vapor or sublimation pressure, 303.14 K
[1]	–	0.000143 kPa and 0.000137 kPa and 0.000136 kPa	0.000183 kPa and 0.000176 kPa and 0.000174 kPa	0.000231 kPa and 0.000224 kPa and 0.000217 kPa	0.000295 kPa and 0.000293 kPa and 0.000301 kPa	0.000387 kPa and 0.000371 kPa and 0.000369 kPa	0.000487 kPa and 0.000435 kPa and 0.000445 kPa	0.000651 kPa and 0.000582 kPa and 0.000577 kPa	0.0008 kPa and 0.000723 kPa and 0.000725 kPa	0.000992 kPa and 0.000924 kPa and 0.000927 kPa
[2]	20.1	–	–	–	–	–	–	–	–	–

O=[N+]([O-])c1c(Cl)c(Cl)cc(Cl)c1Cl [2,3,5,6-tetrachloronitrobenzene]
Conditions	molar enthalpy [kcal/mol]
[2], Drop Microcalorimetry	21.8

O=[N+]([O-])c1c(Cl)c(Cl)c(Cl)c(Cl)c1Cl [pentachloronitrobenzene]
Conditions	molar enthalpy [kcal/mol]	vapor or sublimation pressure
[1], 317.11 K	–	0.000102 kPa and 0.000101 kPa
[1], 319.18 K	–	0.000129 kPa and 0.000127 kPa and 0.000124 kPa
[1], 321.2 K	–	0.00015 kPa and 0.000155 kPa and 0.000154 kPa
[1], 323.11 K	–	0.000197 kPa and 0.000196 kPa and 0.000199 kPa
[1], 325.18 K	–	0.000246 kPa and 0.000245 kPa and 0.000241 kPa
[1], 327.2 K	–	0.000289 kPa and 0.000296 kPa and 0.000292 kPa
[1], 329.11 K	–	0.000372 kPa and 0.000367 kPa and 0.000366 kPa
[1], 331.17 K	–	0.000462 kPa and 0.000453 kPa and 0.000447 kPa
[1], 333.2 K	–	0.000531 kPa and 0.000549 kPa and 0.00054 kPa
[1], 335.11 K	–	0.000692 kPa and 0.000673 kPa and 0.000671 kPa
[1], 337.18 K	–	0.000844 kPa and 0.000833 kPa and 0.000818 kPa
[1], 339.2 K	–	0.000971 kPa and 0.001009 kPa and 0.000993 kPa
[2], Drop Microcalorimetry	23	–
